Measurements published in patent US20240398818A1, “Cardiosafe Antidiabetic Therapy” (priority 2018, published 2024).

Tested on: adult patients with early type 2 diabetes mellitus and increased CV risk or established complications
Assay: Cardiovascular Safety Trial (linagliptin versus glimepiride)
Format: in vivo
Procedure: The effect of linagliptin on cardiovascular risk in adult patients with early type 2 diabetes mellitus and increased CV risk or established complications was evaluated in this Cardiovascular Safety Trial, a multi-center, multi-national, randomized, double-blind parallel group trial. The trial compared the risk of experiencing a major adverse cardiovascular event (MACE) between linagliptin and glimepiride when these were added to standard of care (including background therapy with metformin) based on regional standards for HbA1c and CV risk factors. The trial was event driven and patients were followed until at least 631 primary outcome events accrued.
A total of 6033 patients were treated (linagliptin 5 mg=3023; glimepiride 1 mg to 4 mg=3010) and followed for a median of 6.25 years (median time on treatment 5.9 years). Approximately 73% of the study population was Caucasian, 18% was Asian, and 5% was Black. The mean age was 64 years and 60% were male.
At baseline, disease characteristics were balanced. […] The trial population included 2030 (34%) patients ≥70 years of age, 2089 (35%) patients with cardiovascular disease, and 1130 (19%) patients with renal impairment with an eGFR <60 mL/min/1.73 m2 at baseline. Overall, the previous use of diabetes medications was balanced across treatment groups (metformin 83% continued as background therapy, sulfonylurea 28% discontinued prior to randomization), patients on insulin were excluded. The use of medications to reduce cardiovascular risk was also balanced (aspirin 47%, statins 65%, ACE inhibitors or ARBs 74%, beta blockers 39%, and calcium channel blockers 30%).
The primary endpoint in this Cardiovascular Safety Trial was the time to first occurrence of three point (3P) MACE. A major adverse cardiac event was defined as a cardiovascular death or a nonfatal myocardial infarction (MI) or a nonfatal stroke. The statistical analysis plan tested for non-inferiority for the occurrence of 3P MACE. The key secondary endpoint evaluated the composite of treatment sustainability defined as the proportion of patients on study treatment, that maintain glycemic control (HbA1c≤7.0%) without need for additional antidiabetic drug therapy (rescue medication), without any moderate (symptomatic with glucose value <70 mg/dL) or severe (requiring assistance) hypoglycemic episodes, and without >2% weight gain from baseline.
Cardiovascular Outcome Trial of Linagliptin Versus Glimepriride in Type 2 Diabetes—assessing long-term cardiovascular impact of linagliptin versus the sulphonylurea glimepiride in subjects with early type 2 diabetes and increased cardiovascular risk or established complications. […]
Type 2 diabetes patient with insufficient glycemic control (naïve or currently treated (mono or dual therapy) with e.g. metformin and/or an alpha-glucosidase inhibitor (e.g. having HbA1c 6.5-8.5%), or currently treated (mono or dual therapy) with e.g. a sulphonylurea or glinide, with or without metformin or an alpha-glucosidase inhibitor (e.g. having HbA1c 6.5-7.5%)) and increased or high risk of cardiovascular events, e.g. defined as one or more of risk factors A), B), C) and D) indicated below, are randomized* and treated over a lengthy period (e.g. up to 432 weeks) with linagliptin (5 mg, q.d., optionally in combination with one or more other active substances, e.g. such as added to existing antidiabetic background) and compared with patients treated with the sulphonylurea glimepiride (1-4 mg once daily). * Upon randomization, if a patient is on a SU or glinide, this secretagogue therapy is discontinued and replaced with study medication. For patients not on a secretagogue, study medication is added to the existing regimen.
Time to first occurrence of any of the following adjudicated components of the primary composite endpoint: […]

[1] = baseline to Final Visit, observed cases including values after rescue medication
[2] = both, human, in vivo, 5.9 years
[3] = both, human, in vivo, 6.25 years
[4] = component of secondary composite
[5] = from end of titration (16 weeks) to final visit
[6] = median follow-up 6.25 years, listed as linagliptin

**Q.** What does the source list for CC#CCn1c(N2CCC[C@@H](N)C2)nc2c1c(=O)n(Cc1nc(C)c3ccccc3n1)c(=O)n2C [Linagliptin, 1-[(4-methyl-quinazolin-2-yl)methyl]-3-methyl-7-(2-butyn-1-yl)-8-(3-(R)-amino-piperidin-1-yl)-xanthine]?
**A.** patients with macroalbuminuria (>300 mg/g) (at Final Visit): 1.4%; patients with microalbuminuria (≥30 to ≤300 mg/g) (at Final Visit): 14.1%; patients with normal UACR (<30 mg/g) (at baseline and at Final Visit): 58.4%; HBA1c, Change from baseline, adjusted mean (baseline to Final Visit, all observed cases): 0.06%; Creatinine, Change from baseline, adjusted mean [1]: 0.08 mg/dL; HDL, Change from baseline, adjusted mean [1]: 0.7 mg/dL; LDL, Change from baseline, adjusted mean [1]: -6.1 mg/dL; Total cholesterol, Change from baseline, adjusted mean [1]: -5.4 mg/dL; Triglyceride, Change from baseline, adjusted mean [1]: 1.7 mg/dL; Urinary albumin, Change from baseline, adjusted mean [1]: 43.4 mg/dL; third key secondary endpoint of treatment sustainability (on medication, HbA1c≤7.0%, no rescue, no >2% weight gain), responders (between Visit 6 and Final Visit): 17.4%; Hospitalization for heart failure (HHF), Incidence Rate per 1000 PY (both, human, in vivo): 6.4 per 1000 PY; Hospitalization for heart failure (HHF), Number of Subjects (both, human, in vivo): 112; Moderate/severe hypoglycaemic episodes, odds ratio (both, human, in vivo): 0.16; Patients with any moderate/severe hypoglycemic episodes, Number of Subjects (both, human, in vivo): 163; Patients with any moderate/severe hypoglycemic episodes, Subjects (%) (both, human, in vivo): 5.6%; Secondary CV composite (4P-MACE), Incidence Rate per 1000 PY (both, human, in vivo): 23.4 per 1000 PY; rate of moderate or severe hypoglycemia [2]: 6.5%; severe hypoglycemia (requiring assistance) [2]: 0.3%; Premature discontinuation from trial medication due to adverse events [3]: 15.1%; Primary CV composite (3P-MACE), Hazard Ratio [3]: 0.98; Primary CV composite (3P-MACE), Incidence Rate per 1000 PY [3]: 20.7 per 1000 PY; Secondary CV composite (4P-MACE), Hazard Ratio [3]: 0.99; all-cause mortality, incidence rate per 1000 years at risk [3]: 16.8 per 1000 years at risk; any adjudicated event (secondary CV endpoint), % of patients [3]: 17.1%; any adjudicated event, HR [3]: 0.96; hospitalisation for heart failure combined with CV death, incidence rate per 1000 years at risk [3]: 13.4 per 1000 years at risk; hospitalisation for heart failure, incidence rate per 1000 years at risk [3]: 6.4 per 1000 years at risk; investigator-reported heart failure AEs, % of patients [3]: 5.5%; investigator-reported heart failure AEs, HR [3]: 1.06; investigator-reported heart failure AEs, incidence rate per 1000 years at risk [3]: 9.5 per 1000 years at risk; non-CV death, % of patients [3]: 4.6%; non-CV death, incidence rate per 1000 years at risk [3]: 7.6 per 1000 years at risk; proportion of patients with CV death contributing to the 3P-MACE [3]: 4.3%; proportion of patients with CV death contributing to the 4P-MACE [3]: 4.1%; proportion of patients with hospitalisation for unstable angina pectoris contributing to the 4P-MACE [3]: 1.9%; proportion of patients with non-fatal MI contributing to the 3P-MACE [3]: 4.7%; proportion of patients with non-fatal MI contributing to the 4P-MACE [3]: 4.4%; proportion of patients with non-fatal stroke contributing to the 3P-MACE [3]: 2.8%; proportion of patients with non-fatal stroke contributing to the 4P-MACE [3]: 2.8%; Creatinine, Comparison vs. glimepiride, Adjusted mean (change baseline to Final Visit): -0.01 mg/dL; FPG, Comparison vs. glimepiride, Adjusted mean (change baseline to Final Visit): -7.3 mg/dL; HBA1c, Comparison vs. glimepiride, Adjusted mean (change baseline to Final Visit): −0.09%; HDL, Comparison vs. glimepiride, Adjusted mean (change baseline to Final Visit): 0.5 mg/dL; LDL, Comparison vs. glimepiride, Adjusted mean (change baseline to Final Visit): 0.4 mg/dL; Total cholesterol, Comparison vs. glimepiride, Adjusted mean (change baseline to Final Visit): -0.4 mg/dL; Triglyceride, Comparison vs. glimepiride, Adjusted mean (change baseline to Final Visit): -3.5 mg/dL; Urinary albumin, Comparison vs. glimepiride, Adjusted mean (change baseline to Final Visit): -1.9 mg/dL; Patients with maintained glycemic control (HbA1c ≤7.0%), Number of Subjects [4]: 648; Patients with maintained glycemic control (HbA1c ≤7.0%), Subjects (%) [4]: 21.5%; Patients with ≤2% weight gain, Number of Subjects [4]: 775; Patients with ≤2% weight gain, Subjects (%) [4]: 25.7%; Secondary composite of treatment sustainability (on treatment, HbA1c ≤7.0%, no rescue, no moderate/severe hypoglycemic episodes, no >2% weight gain), Number of Subjects [5]: 481; Secondary composite of treatment sustainability (second key secondary endpoint), Subjects (%) [5]: 16.0%; first intake of rescue medication, incidence rate per 1000 years at risk (in vivo): 128.6 per 1000 years at risk; rate of patients who used rescue medication (in vivo): 49.3%; safety profile in this trial population (in words) (in vivo): no new safety signal; time to 3P-MACE, non-inferiority test (in words) (in vivo): non-inferior; weight, adjusted mean difference (linagliptin compared with glimepiride over time): -1.61 kg; All-cause mortality, Hazard Ratio (linagliptin vs glimepiride): 0.91; HHF or CV death, Hazard Ratio (linagliptin vs glimepiride): 1.00; non-CV death, hazard ratio (linagliptin vs glimepiride): 0.82; third key secondary endpoint of treatment sustainability, OR (linagliptin vs glimepiride): 1.29; HHF or CV death, Hazard Ratio (linagliptin vs glimepiride, listed as linagliptin): 1.00; Secondary composite of treatment sustainability (second key secondary endpoint), Odds Ratio (linagliptin vs glimepiride, logistic regression): 1.68; All-cause mortality, Incidence Rate per 1000 PY (median follow-up 6.25 years): 16.8 per 1000 PY; All-cause mortality, Number of Subjects (median follow-up 6.25 years): 308; All-cause mortality, Subjects (%) (median follow-up 6.25 years): (10.2) %; HHF or CV death, Incidence Rate per 1000 PY (median follow-up 6.25 years): 13.4 per 1000 PY; HHF or CV death, Number of Subjects (median follow-up 6.25 years): 236; HHF or CV death, Subjects (%) (median follow-up 6.25 years): (7.8) %; Secondary CV composite (cardiovascular death, non-fatal MI, non-fatal stroke and hospitalization for unstable angina; 4P-MACE), Number of Subjects (median follow-up 6.25 years): 398; Primary CV composite (cardiovascular death, non-fatal MI, non-fatal stroke; 3P-MACE), Number of Subjects (median follow-up 6.25 years, added to standard of care): 356; All-cause mortality, Subjects (%) [6]: 10.2%; HHF or CV death, Subjects (%) [6]: 7.8%; weight change (in words) (over time): modest decrease in weight
